From patent publication US8580825B2, “Oxadiazole inhibitors of leukotriene production” (Boehringer Ingelheim International GmbH, priority 2010, dated 2013)

Columns and labels:
[1] = biological target: T1, recombinant human FLAP protein (Homo sapiens, UniProt P20292); assay: FLAP binding assay (Scintillation Proximity Assay, displacement of [125I]L-691,831); details: read-out: FLAP SPA IC50
T1 construct: made in house; host or cells: Sf9 insect cells (100,000xg membrane fraction used)
T1 sequence (P20292 1-161): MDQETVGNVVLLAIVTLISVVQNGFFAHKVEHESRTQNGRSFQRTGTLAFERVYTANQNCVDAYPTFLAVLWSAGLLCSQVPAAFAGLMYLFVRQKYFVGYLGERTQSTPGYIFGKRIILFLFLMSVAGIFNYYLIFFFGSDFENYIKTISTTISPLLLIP
Outline: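 Scintillation proximity displacement of [125I]L-691,831 (0.08 nM) from membranes of sf9 cells expressing recombinant human FLAP (5 μg/well) on WGA SPA beads, pH 7.5 Tris buffer. Plates shaken 2 h before counting. Non-specific binding defined with 10 μM unlabelled L-691,831.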

[2] = tested on: synthesis of LTB4 in human whole blood; assay: human whole blood LTB4 production inhibition assay; type: cell-based; details: calcimycin stimulated, read-out: hWB LTB4 IC50
Outline: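 Readout: plasma LTB4 by antibody-based HTRF. Compound added to heparinized human whole blood, 15 min 37° C; calcimycin 20 μM final (PBS pH 7.4), 30 min 37° C; spun 1500×g 5 min, plasma taken.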

Row | IC50 [1] [nM] | IC50 [2] [nM] | SMILES
1 | 9.9 | 61 | CC(C)[C@](C)(c1ccc(-c2ccc(N)nc2)nc1)c1noc(-c2cnn(CC(C)(C)O)c2)n1 [Example 136, 1-(4-{3-[(R)-1-(6′-Amino-[2,3′]bipyridinyl-5-yl)-1,2-dimethyl-propyl]-[1,2,4]oxadiazol-5-yl}-pyrazol-1-yl)-2-methyl-propan-2-ol]
2 | 11 | 590 | CC(C)[C@](C)(c1ccc(-c2ccc(N)nc2)nc1)c1noc(-c2cnc(N3CCNCC3)cn2)n1 [Example 137, 5-{(R)-1,2-Dimethyl-1-[5-(3,4,5,6-tetrahydro-2H-[1,2′]bipyrazinyl-5′-yl)-[1,2,4]oxadiazol-3-yl]-propyl}-[2,3′]bipyridinyl-6′-ylamine]
3 | 22 | 100 | COCCn1cc(-c2nc([C@@](C)(c3ccc(-c4ccc(N)nc4)nc3)C3CC3)no2)cn1 [Example 138, 5-((R)-1-Cyclopropyl-1-{5-[1-(2-methoxy-ethyl)-1H-pyrazol-4-yl]-[1,2,4]oxadiazol-3-yl}-ethyl)-[2,3′]bipyridinyl-6′-ylamine]
4 | 33 | 68 | CC(C)(O)Cn1cc(-c2nc([C@@](C)(c3ccc(-c4ccc(N)nc4)nc3)C3CC3)no2)cn1 [Example 139, 1-(4-{3-[(R)-1-(6′-Amino-[2,3′]bipyridinyl-5-yl)-1-cyclopropyl-ethyl]-[1,2,4]oxadiazol-5-yl}-pyrazol-1-yl)-2-methyl-propan-2-ol]
5 | 44 | 150 | CN(C)C(=O)Cn1cc(-c2nc([C@@](C)(c3ccc(-c4ccc(N)nc4)nc3)C3CC3)no2)cn1 [Example 140, 2-(4-{3-[(R)-1-(6′-Amino-[2,3′]bipyridinyl-5-yl)-1-cyclopropyl-ethyl]-[1,2,4]oxadiazol-5-yl}-pyrazol-1-yl)-N,N-dimethyl-acetamide]
6 | 8.3 | 68 | CC(C)[C@](C)(c1ccc(-c2cnc(N)nc2)nc1)c1noc(-c2cnn(CC(=O)NC(C)(C)C)c2)n1 [Example 141, 2-[4-(3-{(R)-1-[6-(2-Amino-pyrimidin-5-yl)-pyridin-3-yl]-1,2-dimethyl-propyl}-1,2,4-oxadiazol-5-yl)-pyrazol-1-yl]-N-tert-butyl-acetamide]
7 | 16 | 85 | CC(C)NC(=O)Cn1cc(-c2nc([C@@](C)(c3ccc(-c4cnc(N)nc4)nc3)C(C)C)no2)cn1 [Example 142, 2-[4-(3-{(R)-1-[6-(2-Amino-pyrimidin-5-yl)-pyridin-3-yl]-1,2-dimethyl-propyl}-1,2,4-oxadiazol-5-yl)-pyrazol-1-yl]-N-isopropyl-acetamide]
8 | 9.2 | 51 | CC(C)[C@](C)(c1ccc(-c2cnc(N)nc2)nc1)c1noc(-c2cnn(CC(=O)N(C)C(C)(C)C)c2)n1 [Example 143, 2-[4-(3-{(R)-1-[6-(2-Amino-pyrimidin-5-yl)-pyridin-3-yl]-1,2-dimethyl-propyl}-1,2,4-oxadiazol-5-yl)-pyrazol-1-yl]-N-tert-butyl-N-methyl-acetamide]
9 | 13 | 68 | CC(C)[C@](C)(c1ccc(-c2cnc(N)nc2)nc1)c1noc(-c2cnn(CC(=O)N(C)C3CC3)c2)n1 [Example 144, 2-[4-(3-{(R)-1-[6-(2-Amino-pyrimidin-5-yl)-pyridin-3-yl]-1,2-dimethyl-propyl}-1,2,4-oxadiazol-5-yl)-pyrazol-1-yl]-N-cyclopropyl-N-methyl-acetamide]
10 | 14 | 110 | CC(C)CNC(=O)Cn1cc(-c2nc([C@@](C)(c3ccc(-c4cnc(N)nc4)nc3)C(C)C)no2)cn1 [Example 145, 2-[4-(3-{(R)-1-[6-(2-Amino-pyrimidin-5-yl)-pyridin-3-yl]-1,2-dimethyl-propyl}-1,2,4-oxadiazol-5-yl)-pyrazol-1-yl]-N-isobutyl-acetamide]
11 | 9.4 | 53 | CC(C)[C@](C)(c1ccc(-c2cnc(N)nc2)nc1)c1noc(-c2cnn(CC(=O)N(C)CC3CCCO3)c2)n1 (stereo partly drawn) [Example 146, 2-[4-(3-{(R)-1-[6-(2-Amino-pyrimidin-5-yl)-pyridin-3-yl]-1,2-dimethyl-propyl}-1,2,4-oxadiazol-5-yl)-pyrazol-1-yl]-N-methyl-N-(tetrahydro-furan-2-ylmethyl)-acetamide]
12 | 8.6 | 170 | CC(C)[C@](C)(c1ccc(-c2cnc(N)nc2)nc1)c1noc(-c2cnn(CC(=O)NC3CC3)c2)n1 [Example 147, 2-[4-(3-{(R)-1-[6-(2-Amino-pyrimidin-5-yl)-pyridin-3-yl]-1,2-dimethyl-propyl}-1,2,4-oxadiazol-5-yl)-pyrazol-1-yl]-N-cyclopropyl-acetamide]
13 | 22 | 290 | CC(C)[C@](C)(c1ccc(-c2cnc(N)nc2)nc1)c1noc(-c2cnn(CC(=O)NCC3CCCO3)c2)n1 (stereo partly drawn) [Example 148, 2-[4-(3-{(R)-1-[6-(2-Amino-pyrimidin-5-yl)-pyridin-3-yl]-1,2-dimethyl-propyl}-1,2,4-oxadiazol-5-yl)-pyrazol-1-yl]-N-(tetrahydro-furan-2-ylmethyl)-acetamide]
14 | 15 | 140 | CCNC(=O)Cn1cc(-c2nc([C@@](C)(c3ccc(-c4cnc(N)nc4)nc3)C(C)C)no2)cn1 [Example 149, 2-[4-(3-{(R)-1-[6-(2-Amino-pyrimidin-5-yl)-pyridin-3-yl]-1,2-dimethyl-propyl}-1,2,4-oxadiazol-5-yl)-pyrazol-1-yl]-N-ethyl-acetamide]
15 | 42 | 180 | COC1CCN(C(=O)Cn2cc(-c3nc([C@@](C)(c4ccc(-c5cnc(N)nc5)nc4)C(C)C)no3)cn2)C1 (stereo partly drawn) [Example 150, 2-[4-(3-{(R)-1-[6-(2-Amino-pyrimidin-5-yl)-pyridin-3-yl]-1,2-dimethyl-propyl}-1,2,4-oxadiazol-5-yl)-pyrazol-1-yl]-1-(3-methoxy-pyrrolidin-1-yl)-ethanone]
16 | 32 | 190 | CC(C)[C@](C)(c1ccc(-c2cnc(N)nc2)nc1)c1noc(-c2cnn(CC(=O)N3CCOCC3)c2)n1 [Example 151, 2-[4-(3-{(R)-1-[6-(2-Amino-pyrimidin-5-yl)-pyridin-3-yl]-1,2-dimethyl-propyl}-1,2,4-oxadiazol-5-yl)-pyrazol-1-yl]-1-morpholin-4-yl-ethanone]
17 | 24 | 190 | COCCNC(=O)Cn1cc(-c2nc([C@@](C)(c3ccc(-c4cnc(N)nc4)nc3)C(C)C)no2)cn1 [Example 152, 2-[4-(3-{(R)-1-[6-(2-Amino-pyrimidin-5-yl)-pyridin-3-yl]-1,2-dimethyl-propyl}-1,2,4-oxadiazol-5-yl)-pyrazol-1-yl]-N-(2-methoxy-ethyl)-acetamide]
18 | 16 | 150 | COCCN(C)C(=O)Cn1cc(-c2nc([C@@](C)(c3ccc(-c4cnc(N)nc4)nc3)C(C)C)no2)cn1 [Example 153, 2-[4-(3-{(R)-1-[6-(2-Amino-pyrimidin-5-yl)-pyridin-3-yl]-1,2-dimethyl-propyl}-1,2,4-oxadiazol-5-yl)-pyrazol-1-yl]-N-(2-methoxy-ethyl)-N-methyl-acetamide]
19 | 21 | 550 | CC(C)[C@](C)(c1ccc(-c2cnc(N)nc2)nc1)c1noc(-c2cnn(CC(=O)NC3CCOCC3)c2)n1 [Example 154, 2-[4-(3-{(R)-1-[6-(2-Amino-pyrimidin-5-yl)-pyridin-3-yl]-1,2-dimethyl-propyl}-1,2,4-oxadiazol-5-yl)-pyrazol-1-yl]-N-(tetrahydro-pyran-4-yl)-acetamide]
20 | 19 | 110 | COC1CCN(C(=O)Cn2cc(-c3nc([C@@](C)(c4ccc(-c5cnc(N)nc5)nc4)C(C)C)no3)cn2)CC1 [Example 155, 2-[4-(3-{(R)-1-[6-(2-Amino-pyrimidin-5-yl)-pyridin-3-yl]-1,2-dimethyl-propyl}-1,2,4-oxadiazol-5-yl)-pyrazol-1-yl]-1-(4-methoxy-piperidin-1-yl)-ethanone]
21 | 27 | 54 | CNc1cnc(-c2ccc([C@](C)(c3noc(-c4cnn(CC(C)(C)O)c4)n3)C3CC3)cn2)cn1 [Example 156, 1-[4-(3-{(R)-1-Cyclopropyl-1-[6-(5-methylamino-pyrazin-2-yl)-pyridin-3-yl]-ethyl}-[1,2,4]oxadiazol-5-yl)-pyrazol-1-yl]-2-methyl-propan-2-ol]
22 | 420 | 969 | CNc1cnc(-c2ccc([C@@](C)(c3noc(-c4cnn(CC(C)(C)O)c4)n3)C3CC3)cn2)cn1 [Example 157, 1-[4-(3-{(S)-1-Cyclopropyl-1-[6-(5-methylamino-pyrazin-2-yl)-pyridin-3-yl]-ethyl}-[1,2,4]oxadiazol-5-yl)-pyrazol-1-yl]-2-methyl-propan-2-ol]
23 | 230 | 502 | CC(C)(O)Cn1cc(-c2nc(C(C)(c3ccc(-c4cnc(N)c(F)c4)nc3)C3CC3)no2)cn1 (stereo not drawn) [Example 158, 1-(4-{3-[1-(6′-Amino-5′-fluoro-[2,3′]bipyridinyl-5-yl)-1-cyclopropyl-ethyl]-[1,2,4]oxadiazol-5-yl}-pyrazol-1-yl)-2-methyl-propan-2-ol]
24 | 27 | 167 | CC(C)(O)Cn1cc(-c2nc(C(C)(c3ccc(-c4cnc5[nH]ccc5n4)nc3)C3CC3)no2)cn1 (stereo not drawn) [Example 159, 1-[4-(3-{1-Cyclopropyl-1-[6-(5H-pyrrolo[2,3-b]pyrazin-2-yl)-pyridin-3-yl]-ethyl}-[1,2,4]oxadiazol-5-yl)-pyrazol-1-yl]-2-methyl-propan-2-ol]
